Source: patent US12398375B2, “Methods for improved poxvirus yields” (priority 2018, dated 2025)

What was measured:
[1] = test system: MYXV expressing a GFP reporter gene (vMyx-GFP) in human A549 cells; test: MYXV reporter gene (GFP) expression in human A549 cells, fluorescence microscopy; assay type: cell-based, Myxoma virus; details: human A549 cells pre-treated 1 h with different concentrations; vMyx-GFP MOI 1.0, 0.1 or 0.01; images at 48 h and 72 h post infection
[2] = test system: VACV expressing GFP (VACV-GFP) in human A549 cells; assay type: cell-based, vaccinia virus
[3] = test system: VACV-GFP in human A549 cells; assay type: cell-based, vaccinia virus
[4] = test system: vMyx-GFP in human A549 cells; test: MYXV progeny virus titration assay (A549 infection, titrated on RK13 cells); assay type: cell-based, Myxoma virus; details: for levels of progeny virus (MYXV titers): A549 cells
HeLa cells = details: cited from earlier work
CRM1 = CRM1 (Homo sapiens, UniProt O14980); details: reported (Dickmanns et al. 2015); cited from earlier work
[5] = vMyx-GFP MOI 0.1 or 0.01, harvested after 48 h or 72 h, FIGS. 6A-6B
[6] = vMyx-GFP MOI 1.0, 0.1 or 0.01, inhibitor 0.001, 0.01 or 0.1 μM, harvested after 48 h, FIGS. 5A-5D

Chain of CRM1 (O14980 whole entry): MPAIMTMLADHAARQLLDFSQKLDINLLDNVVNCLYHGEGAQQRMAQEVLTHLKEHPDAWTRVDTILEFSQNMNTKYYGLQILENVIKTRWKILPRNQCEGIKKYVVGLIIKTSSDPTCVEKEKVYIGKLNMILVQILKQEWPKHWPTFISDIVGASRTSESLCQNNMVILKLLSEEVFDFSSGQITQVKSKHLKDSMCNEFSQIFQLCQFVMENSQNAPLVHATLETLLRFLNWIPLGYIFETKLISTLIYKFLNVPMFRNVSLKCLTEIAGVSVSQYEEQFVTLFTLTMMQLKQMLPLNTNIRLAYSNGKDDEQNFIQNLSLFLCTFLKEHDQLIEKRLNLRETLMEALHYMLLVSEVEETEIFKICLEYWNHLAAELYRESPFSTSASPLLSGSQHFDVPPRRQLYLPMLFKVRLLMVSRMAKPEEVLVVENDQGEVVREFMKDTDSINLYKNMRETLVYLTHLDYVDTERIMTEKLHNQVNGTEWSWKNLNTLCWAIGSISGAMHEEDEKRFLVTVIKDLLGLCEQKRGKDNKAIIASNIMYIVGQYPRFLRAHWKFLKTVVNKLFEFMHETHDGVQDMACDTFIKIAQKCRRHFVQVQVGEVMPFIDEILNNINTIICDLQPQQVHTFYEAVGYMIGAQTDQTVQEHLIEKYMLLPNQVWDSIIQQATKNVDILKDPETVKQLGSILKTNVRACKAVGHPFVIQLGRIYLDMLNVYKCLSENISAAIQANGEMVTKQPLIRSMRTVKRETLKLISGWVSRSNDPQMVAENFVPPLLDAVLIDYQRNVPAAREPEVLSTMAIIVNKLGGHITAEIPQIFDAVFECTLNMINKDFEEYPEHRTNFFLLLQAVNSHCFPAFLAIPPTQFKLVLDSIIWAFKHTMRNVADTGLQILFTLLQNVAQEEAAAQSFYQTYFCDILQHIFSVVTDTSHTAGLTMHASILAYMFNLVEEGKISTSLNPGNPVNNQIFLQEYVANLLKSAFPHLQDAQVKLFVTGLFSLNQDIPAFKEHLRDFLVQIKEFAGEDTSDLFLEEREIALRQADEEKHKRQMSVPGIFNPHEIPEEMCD

Molecule	MYXV replication, as indicated by reporter gene expression (GFP fluorescence) [1]	VACV replication, as indicated by reporter gene expression (GFP fluorescence) [2]	levels of progeny virus (VACV titers) [3]	levels of progeny virus (MYXV titers) [4, 5]	levels of progeny virus (MYXV titers) [4, 6]	concentration that arrests cells at the G1 phase (HeLa cells) [pg/mL]	progeny virus production enhancement compared to the other tested drugs ([4]; FIGS. 6A and 6B, MOI 0.1 or 0.01, 48 h or 72 h)	concentration that shuts down CRM1-mediated nuclear protein export (CRM1)
CC(/C=C/C[C@@H](C)/C=C(C)/C=C/[C@@H]1OC(=O)C=C[C@@H]1C)=C\[C@@H](C)C(=O)[C@@H](C)[C@H](O)[C@@H](C)C/C(C)=C/C(=O)O [Leptomycin A]	enhanced myxoma virus (MYXV) replication	enhanced VACV replication	higher levels of progeny virus	higher levels of progeny virus	higher levels of progeny virus			
CCC(=C/[C@H](C)C/C=C/C(C)=C/[C@@H](C)C(=O)[C@@H](C)[C@H](O)[C@@H](C)C/C(C)=C/C(=O)O)/C=C/[C@@H]1OC(=O)C=C[C@@H]1C [Leptomycin B]	enhanced MYXV replication	enhanced VACV replication	higher levels of progeny virus	higher levels of progeny virus	higher levels of progeny virus	50	highest progeny virus production enhancement	
CC(/C=C/C1CC=CC(=O)O1)=C\C(C)C/C=C/C(C)=C/C(C)C(=O)C(C)C(O)C(C)C/C(C)=C/C(=O)O (stereo not shown) [Anguinomycin A]	enhanced MYXV replication			higher levels of progeny virus	higher levels of progeny virus			
Ratjadone A	enhanced MYXV replication			higher levels of progeny virus	higher levels of progeny virus			
Anguinomycin								above 10 nM
